Assay results from US10005767B2, “Compositions and methods for inhibition of the JAK pathway” (Rigel Pharmaceuticals, Inc., priority 2009, dated 2018).
Counter-ions that a name gives are not always drawn. Like-named read-outs stand apart in the source and are kept apart here.

Test system: human primary T-cells, IL-2 stimulated proliferation (JAK-1 and JAK-3 dependent; reported as JAK3 activity)
Assay: Human primary T-cell proliferation stimulated by IL-2 (Example 3)
Assay type: cell-based
Conditions: tested under conditions described in Example 3 (IL-2 stimulated human primary T-cell proliferation), read-out: ability to inhibit JAK3 activity, IC50 range (Table V)
From the text: The activity of the compounds described herein can further be characterized by assaying the effect of the 2,4-pyrimidinediamine compounds described herein on the proliferative response of primary human T-cells. In this assay, primary human T-cells derived from peripheral blood and pre-activated through stimulation of the T-cell receptor and CD28, proliferate in culture in response to the cytokine Interleukin-2 (IL-2). This proliferative response is dependent on the activation of JAK1 and JAK3 tyrosine kinases, which phosphorylate and activate the transcription factor Stat-5. The primary human T-cells are incubated with the 2,4-pyrimidinediamine compounds in the presence of IL-2 for 72 hours, and at the assay endpoint intracellular ATP concentrations are measured to assess cell viability. A reduction in cell proliferation compared to control conditions is indicative of inhibition of the JAK kinase pathway.
Primary human T-cells derived from peripheral blood and pre-activated through stimulation of the T-cell receptor and CD28, proliferate in vitro in response to the cytokine Interleukin-2 (IL-2). This proliferative response is dependent on the activation of JAK-1 and JAK-3 tyrosine kinases, which phosphorylate and activate the transcription factor Stat-5.
Human primary T cells were prepared as follows. […] The lymphocytes at the serum: ficoll interface were recovered and washed twice with 5 volumes of PBS. […] The primary T-cells were stimulated for 3-4 days, then transferred to a fresh flask and maintained in RPMI with 10% FBS and 40 U/mL IL-2.
The day prior to the assay set up, primary T-cells were centrifuged and resuspended in fresh RPMI with 10% FBS but without IL-2 and starved overnight. For the assay, the primary T-cells were centrifuged and resuspended Yssel's medium at 2×10^6 cells/mL. 50 μL of cell suspension containing 80 U/mL IL-2 was added to each well of a flat bottom 96 well black plate. For the unstimulated control, IL-2 was omitted from the last column on the plate. […] 50 μL of 2× compound was added per well in duplicate and the cells were allowed to proliferate for 72 hours at 37° C.
Proliferation was measured using CellTiter-Glo® Luminescent Cell Viability Assay (Promega), which determines the number of viable cells in culture based on quantitation of the ATP present, as an indicator of metabolically active cells. The substrate was thawed and allowed to come to ambient temperature. After mixing the Cell Titer-Glo reagent and diluent together, 100 μL was added to each well. The plates were mixed on an orbital shaker for two minutes to induce lysis and incubated at ambient temperature for an additional ten minutes to allow the signal to equilibrate.
The compound designations in Table V are consistent with those of Tables I-IV above.

| Compound | IC50 | IC50 (Homo sapiens, T-cell) |
| --- | --- | --- |
| Cc1cnc(Nc2cccc(S(N)(=O)=O)c2)nc1Nc1ccc2oc(=O)n(C)c2c1 [Compound I-67, N2-((3-aminosulfonyl)phenyl)-N4-(3-methyl-2-oxo-2,3-dihydrobenzo[d]oxazol-5-yl)-5-methylpyrimidine-2,4-diamine] | < 500 nM |  |
| Cc1cnc(Nc2ccc(N3CCOC(C)C3)nc2)nc1Nc1ccc2oc(=O)[nH]c2c1 (stereo not drawn) [II-138, 5-methyl-N2-[2-(2S-methylmorpholino)pyridin-5-yl]-N4-(2-oxo-2,3-dihydro-1,3-benzoxazol-5-yl)-2,4-pyrimidinediamine] | < 500 nM |  |
| Cc1cnc(Nc2ccc3cn[nH]c3c2)nc1Nc1ccc2oc(=O)[nH]c2c1 [IV-4, N4-(benzo[d]oxazol-2(3H)-on-5-yl)-N2-(1H-indazol-6-yl)-5-methylpyrimidine-2,4-diamine] |  | < 500 nM |
| Cc1cc(Nc2ncc(C)c(Nc3ccc4oc(=O)[nH]c4c3)n2)ccc1C(=O)NC1CCC1 [Compound I-190, N-Cyclobutyl-2-methyl-4-[5-methyl-4-(2-oxo-2,3-dihydro-benzooxazol-5-ylamino)-pyrimidin-2-ylamino]-benzamide] |  | < 500 nM |
| COC(=O)N1CCN(c2ccc(Nc3ncc(C)c(Nc4ccc5oc(=O)[nH]c5c4)n3)cn2)CC1 [II-9, N4-(benzo[d]oxazol-2(3H)-on-5-yl)-N2-(6-(4-methoxycarbonylpiperazin-1-yl)pyridin-3-yl)-5-methylpyrimidine-2,4-diamine] |  | < 500 nM |
| Cc1cnc(Nc2ccc(CN3CCOCC3)cc2)nc1Nc1ccc2oc(=O)[nH]c2c1 [Compound I-382, 5-methyl-N2-(4-morpholinomethyl)phenyl-N4-(2-oxo-2,3-dihydro-1,3-benzoxazol-5-yl)-2,4-pyrimidinediamine] | < 500 nM |  |
| Cc1cnc(Nc2ccc(N3C[C@@H](C)NC[C@@H]3C)nc2)nc1Nc1ccc2oc(=O)[nH]c2c1 (relative stereo) [II-130, N2-[2-(trans-2,5-dimethylpiperazino)pyridin-5-yl]-5-methyl-N4-(2-oxo-2,3-dihydro-1,3-benzoxazol-5-yl)-2,4-pyrimidinediamine] |  | < 500 nM |
| COC(c1cccc(Nc2ncc(C)c(Nc3ccc4oc(=O)[nH]c4c3)n2)c1)C(F)(F)F (centres unmarked) [Compound I-396, N2-[3-(1-methoxy-2,2,2-trifluoroethyl)]phenyl-5-methyl-N4-(2-oxo-2,3-dihydro-1,3-benzoxazol-5-yl)-2,4-pyrimidinediamine] | < 500 nM |  |
| Cc1cnc(Nc2ccc(N3CCC[C@@H](N(C)C(=O)OC(C)(C)C)C3)nc2)nc1Nc1ccc2oc(=O)[nH]c2c1 [II-91, (R)-tert-butyl methyl(1-(5-(5-methyl-4-(2-oxo-2,3-dihydrobenzo[d]oxazol-5-ylamino)pyrimidin-2-ylamino)pyridin-2-yl)piperidin-3-yl)carbamate] |  | < 500 nM |
| Cc1cnc(Nc2cccc(NS(C)(=O)=O)c2)nc1Nc1ccc2oc(=O)[nH]c2c1 [Compound I-55, N4-(benzo[d]oxazol-2(3H)-on-5-yl)-N2-(3-methylsulfonylamino)phenyl)-5-methylpyrimidine-2,4-diamine formate salt] | < 500 nM |  |
| Cc1cnc(Nc2ccc(N3CCCN(C)CC3)nc2)nc1Nc1ccc2oc(=O)[nH]c2c1 [II-3, N4-(benzo[d]oxazol-2(3H)-on-5-yl)-N2-(6-(4-methyl-1,4-diazepan-1-yl)pyridin-3-yl)-5-methylpyrimidine-2,4-diamine] |  | < 500 nM |
| Cc1cnc(Nc2cccc(S(C)(=O)=O)c2)nc1Nc1ccc2oc(=O)[nH]c2c1 [Compound I-16] | < 500 nM |  |
| COc1cc(Nc2ncc(C)c(Nc3ccc4oc(=O)[nH]c4c3)n2)cc(C)c1C [Compound I-535, 5-(2-(3-methoxy-4,5-dimethylphenylamino)-5-methylpyrimidin-4-ylamino)benzo[d]oxazol-2(3H)-one] |  | < 500 nM |
| CCOc1cc(Nc2ncc(C)c(Nc3ccc4oc(=O)[nH]c4c3)n2)ccc1Cl [Compound I-182, 5-[2-(4-Chloro-3-ethoxy-phenylamino)-5-methyl-pyrimidin-4-ylamino]-3H-benzooxazol-2-one] |  | < 500 nM |
| Cc1cnc(Nc2ccc(F)c(OC(F)F)c2)nc1Nc1ccc2oc(=O)[nH]c2c1 [Compound I-435, N2-(3-difluoromethoxy-4-fluoro)phenyl-5-methyl-N4-(2-oxo-2,3-dihydro-1,3-benzoxazol-5-yl)-2,4-pyrimidinediamine] | < 500 nM |  |
| Cc1cnc(Nc2ccc(OC(C)C)nc2)nc1Nc1ccc2oc(=O)[nH]c2c1 [II-144, N2-(2-isopropoxypyridin-5-yl)-5-methyl-N4-(2-oxo-2,3-dihydro-1,3-benzoxazol-5-yl)-2,4-pyrimidinediamine] |  | < 500 nM |
| CCNC(C)c1cc(Nc2ncc(C)c(Nc3ccc4oc(=O)[nH]c4c3)n2)cc(C(F)(F)F)c1 (centres unmarked) [Compound I-462, 5-(2-(3-(1-(ethylamino)ethyl)-5-(trifluoromethyl)phenylamino)-5-methylpyrimidin-4-ylamino)benzo[d]oxazol-2(3H)-one] |  | < 500 nM |
| Cc1cnc(Nc2ccc(OCCN3CCOCC3)cc2)nc1Nc1ccc2oc(=O)[nH]c2c1 [Compound I-192, 5-{5-Methyl-2-[4-(2-morpholin-4-yl-ethoxy)-phenylamino]-pyrimidin-4-ylamino}-3H-benzooxazol-2-one] |  | < 500 nM |
| Cc1cnc(Nc2cc(F)c(OC(F)F)c(F)c2)nc1Nc1ccc2oc(=O)[nH]c2c1 [Compound I-388, N2-(3,5-difluoro-4-difluoromethoxy)phenyl-5-methyl-N4-(2-oxo-2,3-dihydro-1,3-benzoxazol-5-yl)-2,4-pyrimidinediamine] | < 500 nM |  |
| Cc1cnc(Nc2ccc3c(c2)OCO3)nc1Nc1ccc2oc(=O)[nH]c2c1 [IV-35, 5-methyl-N2-(3,4-methylenedioxy)phenyl-N4-(2-oxo-2,3-dihydro-1,3-benzoxazol-5-yl)-2,4-pyrimidinediamine] | < 500 nM |  |
| Cc1cnc(Nc2c(C)cccc2F)nc1Nc1ccc2oc(=O)[nH]c2c1 [IV-62, 5-(2-(2-fluoro-6-methylphenylamino)-5-methylpyrimidin-4-ylamino)benzo[d]oxazol-2(3H)-one] |  | 500 to 5000 nM |
| Cn1c(=O)oc2cc(Nc3nc(Nc4ccc(S(N)(=O)=O)cc4)ncc3F)ccc21 [Compound I-58] | > 10000 nM |  |
| CCOC(=O)N1CCN(c2ccc(Nc3ncc(C)c(Nc4ccc5oc(=O)[nH]c5c4)n3)cc2)CC1 [Compound I-344, N2-[4-(4-ethoxycarbonyl)piperazino]phenyl-5-methyl-N4-(2-oxo-2,3-dihydro-1,3-benzoxazol-5-yl)-2,4-pyrimidinediamine] | < 500 nM |  |
| Cc1cnc(Nc2ccc(N3CCOCC3)nc2)nc1Nc1cc(C)c2oc(=O)[nH]c2c1 [II-73, 7-methyl-5-(5-methyl-2-(6-morpholinopyridin-3-ylamino)pyrimidin-4-ylamino)benzo[d]oxazol-2(3H)-one] |  | < 500 nM |
| Cc1cnc(Nc2cccc(S(C)(=O)=O)c2)nc1Nc1cc(C)c2oc(=O)[nH]c2c1 [Compound I-244, 7-methyl-5-(5-methyl-2-(3-(methylsulfonyl)phenylamino)pyrimidin-4-ylamino)benzo[d]oxazol-2(3H)-one] |  | < 500 nM |
| Cc1cnc(Nc2ccc(C(=O)NC3CCC3)cc2)nc1Nc1ccc2oc(=O)n(COP(=O)(OC(C)(C)C)OC(C)(C)C)c2c1 [Compound I-152, di-tert-butyl(5-(2-(4-(cyclobutylcarbamoyl)phenylamino)-5-methylpyrimidin-4-ylamino)-2-oxobenzo[d]oxazol-3(2H)-yl)methyl phosphate] | 500 to 5000 nM |  |
| Cc1cnc(Nc2ccc3c(c2)CN(C(=O)C(C)(C)C)C3)nc1N(C(=O)C(C)(C)C)c1ccc2oc(=O)n(C(=O)C(C)(C)C)c2c1 [III-13, N-{2-[2-(2,2-Dimethyl-propionyl)-2,3-dihydro-1H-isoindol-5-ylamino]-5-methyl-pyrimidin-4-yl}-N-[3-(2,2-dimethyl-propionyl)-2-oxo-2,3-dihydro-benzooxazol-5-yl]-2,2-dimethyl-propionamide] |  | < 500 nM |
| Cc1cnc(Nc2cccc(NS(C)(=O)=O)c2)nc1Nc1ccc2oc(=O)n(C)c2c1 [Compound I-71, N2-((3-methylsulfonylamino)phenyl)-N4-(3-methyl-2-oxo-2,3-dihydrobenzo[d]oxazol-5-yl)-5-methylpyrimidine-2,4-diamine] | < 500 nM |  |
| Cc1cnc(Nc2ccc(F)cc2F)nc1Nc1ccc2oc(=O)[nH]c2c1 [Compound I-456, 5-[2-(2,4-Difluoro-phenylamino)-5-methyl-pyrimidin-4-ylamino]-3H-benzooxazol-2-one] |  | < 500 nM |
